Data as given in US20210112813A1, “HERBICIDAL COMPOSITION AND USE THEREOF” (NANTONG JIANGSHAN AGROCHEMICAL & CHEMICALS CO., LTD., priority 2019, published 2021).

Legend:
Assay type in all cases: in vivo
Bristlegrass [1] = experiment: Greenhouse pot test, pre-emergence soil treatment, visual control effect 30 days after treatment, Gowing method
Experimental: In the present application, indoor combined action of the compound of herbicide active component A and B on weeds was measured to determine the combined effect of the composition on weeds, wherein the structure of the active component A was as follows:
The weed cultivation method was as follows: quantitative weed seeds abutilon and bristlegrass were respectively sown in a paper cup filled with nutrient soil with a diameter of 7 cm, and then cultivated in the greenhouse after covering the soil, suppressing and watering. The post-emergence stem and leaf treatment was performed when the grass weeds grew to 5-7 leaf stage, broad-leaved weeds grew to 6-8 leaf stage; the pre-emergence soil treatment was performed the second day after sowing, and the early post-emergence treatment was performed after sowing and before emergence; the experiment was repeated 3 times. After the treatment and drug solution naturally dried, the weeds were placed in the greenhouse to be managed according to conventional methods. According to the suppression or death of the weeds, a visual control effect investigation was conducted 30 days after the treatment. The application adopted the Gowing method to evaluate the combined effect of the proposed composition.
(§1) X—Weed control effect when the amount of herbicide component A is P;
(§2) Y—Weed control effect when the amount of herbicide component B is Q;
(§3) E0—Theoretical control effect when the amount of herbicide component A is […];
(§4) E—The measured control effect after the herbicide component A and the herbicide component B are mixed according to the above ratio.
(§5) When E−E0>10%, it is synergism; when E−E0<−10%, it is antagonism; when E−E0 value is between ±10%, it is addition.

Eclipta alba = experiment: as above
Abutilon [2] = experiment: Example 12 indoor pot experiment, stem and leaf spray, visual control effect 30 days after treatment, Gowing method
Experimental: (§6) The combined effect of the composition on the weeds was clarified by the indoor pot experiment.
(§7) The weed cultivation and test material cultivation method was as follows: quantitative weed seeds abutilon and bristlegrass were respectively sown in a paper cup filled with nutrient soil with a diameter of 7 cm, and then cultivated in the greenhouse after covering the soil, suppressing and watering. The stem and leaf spray treatment was performed when the grass weeds grew to 5-7 leaf stage, and broad-leaved weeds grew to 6-8 leaf stage; the tests were repeated for 3 times. the treatment and drug solution naturally dried, the weeds were placed in the greenhouse to be managed according to conventional methods. According to the suppression or death of the weeds, a visual control effect investigation was conducted 30 days after the treatment.
(§8) The application adopted the Gowing method to evaluate the combined effect of the proposed composition.
as §1, §2, §3, §4, §5

Bristlegrass [3] = experiment: as above
Experimental: as §6, §7, §8, §1, §2, §3, §4, §5

[4] = test system: goosegrass (collected from Zhengzhou, Henan); experiment: Example 13 combined effect on weeds, Gowing method
Experimental: as §7, §8, §1, §2, §3, §4, §5
(§9) The test targets were horseweed herb collected from Shenyang, Liaoning and goosegrass collected from Zhengzhou, Henan.

[5] = test system: Horseweed herb (collected from Shenyang, Liaoning); experiment: Example 13 combined effect on weeds, Gowing method
Experimental: as §7, §8, §1, §2, §3, §4, §5, §9

Echinochloacrusgalli = experiment: Example 15 indoor pot planting, death rate / herbicidal speed, weeds in 6-leaf stage
Experimental: (§10) The death rate of weeds after application of the herbicidal composition of the present application was measured and compared with the herbicidal rate when a single component was used. The test used the method of indoor pot planting. At the time of treatment, abutilon and barnyardgrass were in 6-leaf stage.

Abutilon [6] = experiment: as above
Experimental: as §10

[7] = Example 12 Table 1, dose 37.5 ga.i./hm^2
[8] = Example 12 Table 1, dose 75 ga.i./hm^2
[9] = Example 12 Table 1, dose 150 ga.i./hm^2
[10] = Example 12 Table 1, dose 300 ga.i./hm^2
[11] = Example 13 Table 2, dose 37.5 ga.i./hm^2
[12] = Example 13 Table 2, dose 75 ga.i./hm^2
[13] = Example 13 Table 2, dose 150 ga.i./hm^2
[14] = Example 13 Table 2, dose 300 ga.i./hm^2
[15] = Table 11, 7 days after treatment, dose 50 ga.i./hm^2
[16] = Table 11, 7 days after treatment, dose 100 ga.i./hm^2
[17] = Table 11, 7 days after treatment, dose 200 ga.i./hm^2
[18] = Table 11, 7 days after treatment, dose 400 ga.i./hm^2
[19] = Table 11, 15 days after treatment, dose 50 ga.i./hm^2
[20] = Table 11, 15 days after treatment, dose 100 ga.i./hm^2
[21] = Table 11, 15 days after treatment, dose 200 ga.i./hm^2
[22] = Table 11, 15 days after treatment, dose 400 ga.i./hm^2
[23] = Table 11, 30 days after treatment, dose 50 ga.i./hm^2
[24] = Table 11, 30 days after treatment, dose 100 ga.i./hm^2
[25] = Table 11, 30 days after treatment, dose 200 ga.i./hm^2
[26] = Table 11, 30 days after treatment, dose 400 ga.i./hm^2

Structure (SMILES): CCOCN(C(=O)CCl)c1c(C)cccc1CC [Acetochlor]
- Measured value E (Bristlegrass [1]; Table 3, dose 75 ga.i./hm^2): 50%
- Measured value E (Bristlegrass [1]; Table 3, dose 150 ga.i./hm^2): 75%
- Measured value E (Eclipta alba; Table 3, dose 75 ga.i./hm^2): 10%
- Measured value E (Eclipta alba; Table 3, dose 150 ga.i./hm^2): 35%

Structure (SMILES): CCCCOCN(C(=O)CCl)c1c(CC)cccc1CC [Butachlor]
- Measured value E (Bristlegrass [1]; Table 3, dose 75 ga.i./hm^2): 45%
- Measured value E (Bristlegrass [1]; Table 3, dose 150 ga.i./hm^2): 60%
- Measured value E (Eclipta alba; Table 3, dose 75 ga.i./hm^2): 15%
- Measured value E (Eclipta alba; Table 3, dose 150 ga.i./hm^2): 25%

Structure (SMILES): CC(C)N.O=C(O)CNCP(=O)(O)O [Glyphosate isopropylamine]
- Measured value E (Abutilon [2]; [7]): 10%
- Measured value E (Abutilon [2]; [8]): 20%
- Measured value E (Abutilon [2]; [9]): 50%
- Measured value E (Abutilon [2]; [10]): 65%
- Measured value E (Bristlegrass [3]; [7]): 0%
- Measured value E (Bristlegrass [3]; [8]): 15%
- Measured value E (Bristlegrass [3]; [9]): 30%
- Measured value E (Bristlegrass [3]; [10]): 45%
- Measured value E [4, 11]: 5%
- Measured value E [4, 12]: 25%
- Measured value E [4, 13]: 50%
- Measured value E [4, 14]: 65%
- Measured value E [5, 11]: 25%
- Measured value E [5, 12]: 35%
- Measured value E [5, 13]: 65%
- Measured value E [5, 14]: 70%
- Control effect (visual observation %) (Echinochloacrusgalli; [15]): 4.1%
- Control effect (visual observation %) (Echinochloacrusgalli; [16]): 36.9%
- Control effect (visual observation %) (Echinochloacrusgalli; [17]): 62.2%
- Control effect (visual observation %) (Echinochloacrusgalli; [18]): 66.7%
- Control effect (visual observation %) (Echinochloacrusgalli; [19]): 34.3%
- Control effect (visual observation %) (Echinochloacrusgalli; [20]): 48.7%
- Control effect (visual observation %) (Echinochloacrusgalli; [21]): 63.9%
- Control effect (visual observation %) (Echinochloacrusgalli; [22]): 64.5%
- Control effect (visual observation %) (Echinochloacrusgalli; [23]): 29.6%
- Control effect (visual observation %) (Echinochloacrusgalli; [24]): 68.5%
- Control effect (visual observation %) (Echinochloacrusgalli; [25]): 100%
- Control effect (visual observation %) (Echinochloacrusgalli; [26]): 99.0%
- Control effect (visual observation %) (Abutilon [6]; [15]): 5.8%
- Control effect (visual observation %) (Abutilon [6]; [16]): 16.2%
- Control effect (visual observation %) (Abutilon [6]; [17]): 24.6%
- Control effect (visual observation %) (Abutilon [6]; [18]): 43.5%
- Control effect (visual observation %) (Abutilon [6]; [19]): 9.0%
- Control effect (visual observation %) (Abutilon [6]; [20]): 26.2%
- Control effect (visual observation %) (Abutilon [6]; [21]): 38.3%
- Control effect (visual observation %) (Abutilon [6]; [22]): 38.0%
- Control effect (visual observation %) (Abutilon [6]; [23]): 6.8%
- Control effect (visual observation %) (Abutilon [6]; [24]): 20.0%
- Control effect (visual observation %) (Abutilon [6]; [25]): 62.6%
- Control effect (visual observation %) (Abutilon [6]; [26]): 79.9%
